{"source": "patent US5476866A", "about": "“Isoxazoles” (Roussel Uclaf, priority 1993, dated 1995)", "key": {"[1]": {"assay": "Kinetic data: plasma concentrations after oral administration to mice", "assay_type": "in vivo", "conditions": "30 mg/kg oral; for half-life: mouse, plasma concentrations monitored for 72 hours, read-out: metabolic half-life (converted); for metabolic half-life relative to the known compound: fraction of known compound's half-life (approximately 21.4 hours)", "method": "A comparison was made between a known compound, namely 5 -cyclopropyl-N-(4-trifluoromethylphenyl)-isoxazole-4-carboxamide and the compounds of the present invention, namely compounds of Examples 5 and 6 above. The compounds were administered orally to mice at doses of 30 mg/kg and plasma concentrations were monitored for 72 hours."}, "[2]": {"system": "Carrageenan rat paw oedema", "assay": "Carrageenan rat paw oedema (Test 1)", "assay_type": "in vivo, male rats CFHB", "conditions": "50 mg/kg p.o.; 1 h before carrageenan; oedema assessed 3 h later", "method": "Carrageenan rat paw oedema (Test 1)\nOne hour after the oral administration of the test compounds or control vehicle to groups of 6 to 12 male rats CFHB with a weight range of 160-180 g, 1 mg of carrageenan dissolved in 0.2 ml of saline was injected into the right hind foot pad. Contralateral paws received control saline injections and paw oedema responses were assessed three hours later."}, "[3]": {"system": "Delayed-type hypersensitivity mouse paw oedema", "assay": "Delayed-type hypersensitivity mouse paw oedema (DTH-M) (Test 2)", "assay_type": "in vivo, male mice CD-1", "conditions": "daily days 4-6, twice day 7, 24 h after MBSA challenge", "method": "Delayed-type hypersensitivity mouse paw oedema (DTH-M) (Test 2)\nGroups of 8 to 10 male mice CD-1 with a weight range of 25-30 g were sensitized by the subcutaneous injection of 1 mg of methylated bovine serum albumin (MBSA) in 0.2 ml volumes of saline/Freund's complete adjuvant (FCA) emulsion. Negative control groups received injections of saline/FCA emulsion. DTH paw oedema responses were assessed twenty-four hours after the right hind foot pad challenge with 0.1 mg of MBSA in 0.05 ml volumes of saline on day seven after sensitization. Contralateral paws received control saline injections. The test compounds or control vehicles were orally administered daily on days four, five, six and twice on day seven, one hour before and six hours after MBSA challenge."}, "[4]": {"system": "Delayed-type hypersensitivity rat paw oedema", "assay": "Delayed-type hypersensitivity rat paw oedema (Test 3)", "assay_type": "in vivo, male rats CFHB", "conditions": "daily days 4-6, twice day 7, 24 h after antigen challenge"}, "Adjuvant arthritis": {"system": "Adjuvant arthritis", "assay": "Adjuvant arthritis (Test 4)", "assay_type": "in vivo, male rats of a Wistar-Lewis strain", "conditions": "25 mg/kg p.o. once daily for 12 days from day of immunization; vs untreated control", "method": "Adjuvant arthritis (Test 4) The investigations were carried out by the method of Pearson (Arthrit. Rheum., Vol. 2, (1959) p. 44). The experimental animals used were male rats of a Wistar-Lewis strain having a body weight between 130 to 200 g. The compounds to be tested were administered orally once daily for 12 days, starting on the day of immunization. The animals of a control group received only the vehicle. Each preparation and control group comprised 6 animals. The criterion used to determine activity was the percentage reduction in the increase in paw volume compared to that of the untreated control group."}, "[5]": {"system": "Reverse Passive Arthus Reaction", "assay": "Reverse Passive Arthus Reaction (Test 5)", "assay_type": "in vivo, male or female Wistar rats", "conditions": "paw volume at 4 h", "method": "Reverse Passive Arthus Reaction (Test 5)\nOne hour before challenge, test compounds were administered orally to male or female Wistar rats weighing 120-200 g. After this pre-treatment period, the reaction was induced by a subplantar injection of goat anti-rat serum in the right hind paw. The left hind paw, which served as a control, was injected with saline alone. Paw volumes were determined immediately and four hours after antibody challenge. Doses are given in units of mg/kg p.o."}, "[6]": {"conditions": "50 mg/kg p.o. 1 h before challenge"}, "[7]": {"conditions": "100 mg/kg p.o. 1 h before challenge"}}}
{"compound": "O=C(Nc1ccc(C(F)(F)F)cc1)c1cnoc1C1CC1", "note": "[5-cyclopropyl-N-(4-trifluoromethylphenyl)-isoxazole-4-carboxamide, reference compound]", "values": [{"measurement": "half-life", "setting": "[1]", "result": "~21.4", "unit": "h"}]}
{"compound": "Cc1cc(NC(=O)c2cnoc2C2CC2)ccc1Br", "note": "[Example 1, 5-cyclopropyl-N-(4-bromo-3-methylphenyl)-isoxazole-4-carboxamide]", "values": [{"measurement": "Test 1 % inhibition", "setting": "[2]", "result": 12, "unit": "%"}, {"measurement": "Test 2 % inhibition", "setting": "[3]; 100 mg/kg p.o.", "result": 41, "unit": "%"}, {"measurement": "Test 3 % inhibition", "setting": "[4]; 50 mg/kg p.o.", "result": 24, "unit": "%"}, {"measurement": "Test 4 % inhibition (percentage reduction in the increase in paw volume)", "setting": "Adjuvant arthritis", "result": -16, "unit": "%"}, {"measurement": "Test 5 % inhibition", "setting": "[5]; [6]", "result": 42, "unit": "%"}, {"measurement": "Test 5 % inhibition", "setting": "[5]; [7]", "result": 26, "unit": "%"}]}
{"compound": "Cc1cc(NC(=O)c2cnoc2C2CC2)ccc1C(F)(F)F", "note": "[Example 6, 5-cyclopropyl-N-(3-methyl-4-trifluoromethylphenyl)-isoxazole-4-carboxamide]", "values": [{"measurement": "Test 1 % inhibition", "setting": "[2]", "result": 12, "unit": "%"}, {"measurement": "Test 2 % inhibition", "setting": "[3]; 100 mg/kg p.o.", "result": 34, "unit": "%"}, {"measurement": "Test 3 % inhibition", "setting": "[4]; 50 mg/kg p.o.", "result": 57, "unit": "%"}, {"measurement": "Test 4 % inhibition (percentage reduction in the increase in paw volume)", "setting": "Adjuvant arthritis", "result": 42, "unit": "%"}, {"measurement": "Test 5 % inhibition", "setting": "[5]; [6]", "result": 24, "unit": "%"}, {"measurement": "Test 5 % inhibition", "setting": "[5]; [7]", "result": 38, "unit": "%"}, {"measurement": "metabolic half-life relative to the known compound", "setting": "[1]", "result": "about one third"}, {"measurement": "half-life", "setting": "[1]", "result": 8.2, "unit": "h"}]}
{"compound": "Cc1cc(NC(=O)c2cnoc2C2CC2)ccc1C#N", "note": "[Example 5, 5-cyclopropyl-N-(4-cyano-3-methylphenyl)-isoxazole-4-carboxamide]", "values": [{"measurement": "Test 1 % inhibition", "setting": "[2]", "result": 18, "unit": "%"}, {"measurement": "Test 2 % inhibition", "setting": "[3]; 30 mg/kg p.o.", "result": 41, "unit": "%"}, {"measurement": "Test 3 % inhibition", "setting": "[4]; 10 mg/kg p.o.", "result": 62, "unit": "%"}, {"measurement": "Test 4 % inhibition (percentage reduction in the increase in paw volume)", "setting": "Adjuvant arthritis", "result": 88, "unit": "%"}, {"measurement": "Test 5 % inhibition", "setting": "[5]; [6]", "result": 23, "unit": "%"}, {"measurement": "Test 5 % inhibition", "setting": "[5]; [7]", "result": 34, "unit": "%"}, {"measurement": "metabolic half-life relative to the known compound", "setting": "[1]", "result": "about one third"}, {"measurement": "half-life", "setting": "[1]", "result": 7.1, "unit": "h"}]}
{"compound": "O=C(Nc1ccc([N+](=O)[O-])cc1)c1cnoc1C1CC1", "note": "[Example 2, 5-cyclopropyl-N-(4-nitrophenyl)-isoxazole-4-carboxamide]", "values": [{"measurement": "Test 1 % inhibition", "setting": "[2]", "result": 0, "unit": "%"}, {"measurement": "Test 2 % inhibition", "setting": "[3]; 100 mg/kg p.o.", "result": 19, "unit": "%"}, {"measurement": "Test 3 % inhibition", "setting": "[4]; 50 mg/kg p.o.", "result": 52, "unit": "%"}, {"measurement": "Test 4 % inhibition (percentage reduction in the increase in paw volume)", "setting": "Adjuvant arthritis", "result": 92, "unit": "%"}, {"measurement": "Test 5 % inhibition", "setting": "[5]; [6]", "result": -9, "unit": "%"}, {"measurement": "Test 5 % inhibition", "setting": "[5]; [7]", "result": 27, "unit": "%"}]}
{"compound": "N#Cc1ccc(NC(=O)c2cnoc2C2CC2)cc1", "note": "[Example 3, 5-cyclopropyl-N-(4-cyanophenyl)-isoxazole-4-carboxamide]", "values": [{"measurement": "Test 1 % inhibition", "setting": "[2]", "result": 43, "unit": "%"}, {"measurement": "Test 2 % inhibition", "setting": "[3]; 30 mg/kg p.o.", "result": 43, "unit": "%"}, {"measurement": "Test 3 % inhibition", "setting": "[4]; 10 mg/kg p.o.", "result": 60, "unit": "%"}, {"measurement": "Test 4 % inhibition (percentage reduction in the increase in paw volume)", "setting": "Adjuvant arthritis", "result": 90, "unit": "%"}, {"measurement": "Test 5 % inhibition", "setting": "[5]; [6]", "result": 41, "unit": "%"}, {"measurement": "Test 5 % inhibition", "setting": "[5]; [7]", "result": 36, "unit": "%"}]}
{"compound": "Cc1cc(NC(=O)c2cnoc2C2CC2)ccc1Cl", "note": "[Example 4, 5-cyclopropyl-N-(4-chloro-3-methylphenyl)-isoxazole-4-carboxamide]", "values": [{"measurement": "Test 1 % inhibition", "setting": "[2]", "result": 11, "unit": "%"}, {"measurement": "Test 2 % inhibition", "setting": "[3]; 100 mg/kg p.o.", "result": 64, "unit": "%"}, {"measurement": "Test 3 % inhibition", "setting": "[4]; 50 mg/kg p.o.", "result": 32, "unit": "%"}, {"measurement": "Test 4 % inhibition (percentage reduction in the increase in paw volume)", "setting": "Adjuvant arthritis", "result": 22, "unit": "%"}, {"measurement": "Test 5 % inhibition", "setting": "[5]; [6]", "result": 17, "unit": "%"}, {"measurement": "Test 5 % inhibition", "setting": "[5]; [7]", "result": 28, "unit": "%"}]}
